# Source: publication PMC5237291, “Sigma-2 receptor agonist derivatives of 1-Cyclohexyl-4-[3-(5-methoxy-1,2,3,4-tetrahydronaphthalen-1-yl)propyl]piperazine (PB28) induce cell death via mitochondrial superoxide production and caspase activation in pancreatic cancer” (BMC Cancer, 2017)
# Read-outs that look alike come from different tables or passages of the source.
# What was measured:
# Panc02 cells [1] = test: MitoSOX Red mitochondrial superoxide by flow cytometry, Panc02; assay type: cell-based, mouse; details: Panc02 cells, 50 μM, 2 h
# Procedure: (§1) MitoSOX™ Red reagent is a novel fluorogenic dye specifically targeted to mitochondria in live cells. Oxidation of MitoSOX™ Red reagent by superoxide produces red fluorescence. Mitochondrial superoxide is generated as a byproduct of oxidative phosphorylation. […] MitoSOX™ Red reagent is readily oxidized by superoxide but not by other ROS- or reactive nitrogen species (RNS)–generating systems. Panc02, AsPC-1, KP-2 or BxPC3 cells were seeded into 12-well plates 24 h before treatment with sigma-2 ligands (50 μM) for 2 h at 37°C in presence or absence of α-tocopherol (100 μM) followed by staining with MitoSOX™ Red (5 μM). Two hours after red dye addition, the cells were washed twice with PBS and harvested with trypsin/EDTA buffer. The cells were washed twice with PBS before analysis with FACSCalibur (BD Bioscience, San Jose, CA). The oxidation product of MitoSOX™ Red by mitochondrial superoxide fluoresces with an emission maximus of 580 nm and was detected in the FL3 channel. Experiment was performed in triplicates.
# Panc02 cells [2] = test: ROS interference in cell viability (MTT with antioxidants); assay type: cell-based, mouse; details: Panc02 cells, ligand 50 μM with NAC 100 μM, 24 h
# Procedure: The interference of ROS in cell viability was indirectly determined by MTT assay reported above at 24 h. On day 1, Panc02 cells were plated at a density of 2 × 10^4 cells/well in opaque 96-well, clear-bottom plates 24 h prior to treatment. On day 2, cells were treated with the drugs (50 μM) in the presence or absence of α-tocopherol (100 μM) or N-Acetyl-L-cysteine (100 μM). After incubation (24 h) with drugs, MTT assay was performed as above.
# sigma-2 receptor = details: read-out: Affinity (Ki) σ2, cited from earlier work
# AsPC-1 cells = test: MTT cell viability, AsPC-1; assay type: cell-based; details: Homo sapiens, ASPC1, 24 h treatment, viability relative to vehicle
# Procedure: (§2) Determination of cell growth was performed using the MTT assay at 24 h. On day 1, pancreatic cancer cell lines were plated at a density of 2 × 10^4 cells/well in black clear-bottom 96-well plates for 24 h prior to treatment in a volume of 100 μL. On day 2, the cells were treated for 24 h with the various drugs concentration (1 μM-100 μM). Untreated cells served as a control. The various drug-solvents (EtOH, DMSO) were added in each control to evaluate a possible solvent cytotoxicity. After the established incubation time with drugs (24 h), MTT (0.5 mg/ml) was added to each well, and after 3–4 h incubation at 37 °C, the supernatant was removed. The formazan crystals were solubilized using 100 μl of DMSO/EtOH (1:1) and the absorbance values at 570 and 630 nm were determined on the multi-mode microplate reader (BioTek instruments, Winooski, VT). Different drug concentrations were assayed in triplicates.
# (§3) Statistical analyses and data plotting were performed using GraphPad Prism software version 6.03 (San Diego, CA). Results were expressed as mean ± standard error of the mean of at least 3 biological replicates. EC50 values were calculated by curve fitting normalized viability versus drug concentration. Differences in viability, caspase-3 activity, and tumor volume were analyzed using two-way ANOVA to identify differences and confirmed with paired two tailed t-tests. Mann-Whitney test was used to compare the difference in CBC and biochemistry analyses. Kaplan-Meier survival analyses were used to assess differences between treatment groups and were compared using a log-rank test. A p-value < 0.05 was considered significant for all analyses.
# Panc02 cells [3] = test: MTT cell viability, Panc02; assay type: cell-based; details: Mus musculus, 24 h treatment, viability relative to vehicle
# Procedure: as §2, §3
# caspase-3 = test: Caspase-Glo caspase-3 activity in Panc02 cells; assay type: cell-based, mouse; details: 200 μM, 5 h
# Procedure: Caspase-3 activity was measured in Panc02 cell lines with a Caspase-Glo® Assay Systems (Promega) according to protocol in which the reagent contain luminogenic caspase substrates that cleaved by activated caspase. […] The contents were then mixed using plate shaker for 30 s, and incubated at room temperature for 90 min. Luminescence signal was measured using multi-mode microplate reader (BioTek). Assay was performed in triplicates, and caspase activity was plotted compared cells treated with DMSO as a control.
# MIAPaCa-2 cells = test: MTT cell viability, MIAPaCa-2; assay type: cell-based; details: Homo sapiens, MIA PaCa-2, 24 h treatment, viability relative to vehicle
# Procedure: as §2, §3
# KP02 cells = test: MTT cell viability, KP02; assay type: cell-based, mouse; details: 24 h treatment, viability relative to vehicle
# Procedure: as §2, §3
# Panc02 tumors = test: In vivo tumor growth and survival, Panc02 tumors in C57BL/6 mice; details: for Effect on tumor volume (in words): daily i.p. treatment, compared to vehicle or gemcitabine
# Procedure: In this pre-clinical model, we utilized the Panc02 cell line, which is weakly immunogenic in C57BL/6 mice and aggressive with a subcutaneous inoculum of 1 × 10^5 cells being lethal within 6–8 weeks. In vivo studies with mice were performed to compare the effect of sigma-2 ligands with gemcitabine. Mice treated with vehicle alone (a mixture of 5% DMSO, 5% EtOH, and 10% Cremophor in H2O) served as the control cohort. Female C57BL/6 mice (10 weeks old, National Cancer Institute Laboratories) were injected in the right flank with 200 μL of a single-cell suspension of Panc02 cells in non-supplemented RPMI medium (1 × 10^6 cells per mouse). Treatment began when the mean tumor diameter was ~ 5 mm. […] Tumors were measured three times weekly in two dimensions with a digital caliper, and tumor volumes were calculated by the standard formula of Tumor Volume = Length x Width^2 × 0.5. All mice were euthanized when tumors reached a diameter of 15 mm or had ulcerated.
# Panc-1 cells = test: MTT cell viability, Panc-1; assay type: cell-based; details: Homo sapiens, 24 h treatment, viability relative to vehicle
# Procedure: as §2, §3
# KCKO cells = test: MTT cell viability, KCKO; assay type: cell-based; details: Mus musculus, 24 h treatment, viability relative to vehicle
# Procedure: as §2, §3
# [4] = Toxicity evaluation on mice not bearing tumor (CBC, serum chemistry, pathology); assay type: in vivo, C57BL/6 mice; details: for Off-target effects by necropsy and laboratory evaluations: naïve C57BL/6 mice, continuous daily treatment
# Procedure: […] Mice from each treatment cohort were assessed for pathologic evaluation (Digestive Diseases Research Core Center at our institution). Blood was collected for complete blood count (CBC) and biochemical analysis (AST, ALT, BUN, total protein, glucose and Cr). Organs were examined grossly and histologically.
# BxPC3 cells [5] = test: MTT cell viability, BxPC3; assay type: cell-based, human; details: 24 h treatment, viability relative to vehicle
# Procedure: as §2, §3
# AsPC1 cells = test: MitoSOX Red mitochondrial superoxide by flow cytometry, AsPC1; assay type: cell-based, human; details: 50 μM, 2 h
# Procedure: as §1
# BxPC3 cells [6] = test: MitoSOX Red mitochondrial superoxide by flow cytometry, BxPC3; assay type: cell-based, human; details: 50 μM, 2 h
# Procedure: as §1
compound,measurement,setting,value
Fc1cccc(F)c1[C@H]1CC[C@@H](N2CCN(C3CCCCC3)CC2)CC1 [PB282],Increase in MitoSOX fluorescence intensity compared to cells treated with DMSO,Panc02 cells [1],6.7 fold
same,Cell death on co-treatment with NAC,Panc02 cells [2],even higher levels of cell death
same,Ki,"sigma-2 receptor; ref Abate, et al., 2011 [28]",0.0141 µM
same,EC50,AsPC-1 cells,> 100 µM
same,EC50,Panc02 cells [3],> 100 µM
same,Increase of caspase-3 activity compared to cells treated with DMSO vehicle,caspase-3,11.8 fold
same,EC50,MIAPaCa-2 cells,51 µM
same,EC50,"KP02 cells; Mus musculus, 24 h",> 100 µM
same,Effect on tumor volume (in words),Panc02 tumors; Panc02 s.c. in female C57BL/6,decreased tumor volume similar to gemcitabine alone
same,Mean tumor volume following conclusion of treatment,"Panc02 tumors; Panc02 s.c. in female C57BL/6, i.p. daily for two weeks (gemcitabine once weekly), vehicle mean = 924 mm^3",483 mm^3
same,Median survival,"Panc02 tumors; Panc02 tumor-bearing C57BL/6 mice, treatment discontinued on day 15, DMSO (vehicle) 23 days",29 days
same,EC50,Panc-1 cells,> 100 µM
same,EC50,KCKO cells,90 µM
same,Off-target effects by necropsy and laboratory evaluations,[4],no major off-target effects
same,Creatinine,"[4]; not tumor-bearing C57BL/6 mice, n = 3, daily i.p., 5 days, control 0.34 ± 0.02",0.35 ± 0.03 mg/dL
same,AST,"[4]; not tumor-bearing C57BL/6 mice, n = 3, daily i.p., 5 days, control 5.6 ± 0.05",5.5 ± 0.07 μ/L
same,RBC,"[4]; not tumor-bearing C57BL/6 mice, n = 3, daily i.p., 5 days, control 7.14 ± 0.1",9.91 ± 0.31 10^6/μL
same,WBC,"[4]; not tumor-bearing C57BL/6 mice, n = 3, daily i.p., 5 days, control 10.58 ± 0.2",5.78 ± 0.78 10^3/μL
same,HGB,"[4]; not tumor-bearing C57BL/6 mice, n = 3, daily i.p., 5 days, control 10.7 ± 0.7",15 ± 0.4 g/dL
same,MCH,"[4]; not tumor-bearing C57BL/6 mice, n = 3, daily i.p., 5 days, control 15 ± 0.54",15.15 ± 0.05 pg
same,BUN,"[4]; not tumor-bearing C57BL/6 mice, n = 3, daily i.p., 5 days, control 27 ± 0.4",24.5 ± 0.5 mg/dL
same,MCHC,"[4]; not tumor-bearing C57BL/6 mice, n = 3, daily i.p., 5 days, control 29.2 ± 1.21",29.4 ± 0.3%
same,HCT,"[4]; not tumor-bearing C57BL/6 mice, n = 3, daily i.p., 5 days, control 36.6 ± 0.08",51.1 ± 1.9%
same,MCV,"[4]; not tumor-bearing C57BL/6 mice, n = 3, daily i.p., 5 days, control 51.2 ± 0.32",51.55 ± 0.35 fL
same,ALT,"[4]; not tumor-bearing C57BL/6 mice, n = 3, daily i.p., 5 days, control 260 ± 21",221 ± 63 μ/L
same,Platelets,"[4]; not tumor-bearing C57BL/6 mice, n = 3, daily i.p., 5 days, control 486 ± 67",649.5 ± 167.5 10^3/μL
same,EC50,"BxPC3 cells [5]; Homo sapiens, BXPC-3, 24 h",> 100 µM
"c1ccc2c(c1)c1ccccc1n2CCCN1CCN(C2CCCCC2)CC1 [F281, 1-Cyclohexyl-4-[3-(9H-carbazol-9-yl)propyl]piperazine]",Ki,"sigma-2 receptor; ref Ferorelli et al., 2007 [27]",0.0126 µM
same,EC50,AsPC-1 cells,98 µM
same,EC50,Panc02 cells [3],37 µM
same,Caspase-3 activation (in words),caspase-3; compared to DMSO control,did not activate at all
same,EC50,MIAPaCa-2 cells,29 µM
same,EC50,KP02 cells,49 µM
same,EC50,"KP02 cells; Mus musculus, 24 h",~45 µM
same,Effect on tumor volume (in words),Panc02 tumors; Panc02 s.c. in female C57BL/6,did not confer a significantly different tumor volume than vehicle alone
same,EC50,Panc-1 cells,> 100 µM
same,EC50,KCKO cells,62 µM
same,Off-target effects by necropsy and laboratory evaluations,[4],no major off-target effects
same,EC50,BxPC3 cells [5],42 µM
same,EC50,"BxPC3 cells [5]; Homo sapiens, BXPC-3, 24 h",~45 µM
same,Mitochondrial superoxide generation in AsPC1,AsPC1 cells,generated some mitochondrial superoxide
same,Mitochondrial superoxide generation in BxPC3,BxPC3 cells [6],generated some mitochondrial superoxide
